Among the data in PubChem BioAssay (NCI) are GI50 and TGI values, retold here.

Test systems include RXF 393 renal; U251 CNS; A549 NSCLC; SK-MEL-5 melanoma; COLO 205 colon; RPMI-8226 leukemia; NCI-H522 lung; SK-MEL-2 melanoma; MALME-3M melanoma; CAKI-1 renal.
What all share (experiment): NCI-60 cell line screen, 48 h

Structures are written as SMILES. “And” between values parts separate entries of the source, which are not always exact repeats. Identical values can stand only once.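 The compound was tested at five concentrations on cells cultured in 96-well plates, with a 48-hour exposure period. GI50 marks 50% less growth. TGI: concentration producing complete growth inhibition.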

Regarding `COc1cccc(-c2nc3sccn3c2-c2ccnc(NCCCNS(=O)(=O)c3cccc(F)c3)c2)c1`, the GI50 is 2.47 µM with RXF 393 renal; 4.77 µM in the assay on U251 CNS; 2.99 µM in the assay with A549 NSCLC; 1.56 µM in the assay on SK-MEL-5 melanoma; 2.22 µM in the assay on COLO 205 colon; 1.29 µM in the assay with RPMI-8226 leukemia. In addition, the GI50 in the assay with NCI-H522 lung is 2.11 µM; in the assay with SK-MEL-2 melanoma, 2.18 µM; with MALME-3M melanoma, 2.23 µM. The TGI with RXF 393 renal is more than 100 µM; in the assay with U251 CNS, more than 100 µM; in the assay with A549 NSCLC it was more than 100 µM; in the assay on SK-MEL-5 melanoma, 3.63 µM; with COLO 205 colon, 11.1 µM; in the assay with RPMI-8226 leukemia it was 4.56 µM. Besides, the TGI was found to be 8.41 µM in the assay on NCI-H522 lung, 5.44 µM in the assay on SK-MEL-2 melanoma and 7.24 µM with MALME-3M melanoma.
As for `C=C(c1ccc2nc(NC(=O)OC)[nH]c2c1)c1cccs1`, the TGI in the assay with RXF 393 renal is more than 100 µM; in the assay with CAKI-1 renal it was 8.27 µM; in the assay with U251 CNS, 7.31 µM; in the assay with A549 NSCLC, more than 100 µM; in the assay on SK-MEL-5 melanoma, more than 20.7 µM; in the assay on COLO 205 colon it was more than 100 µM. The TGI is 3.59 µM with RPMI-8226 leukemia, more than 100 µM in the assay with SK-MEL-2 melanoma and more than 100 µM with MALME-3M melanoma.
On to `CN[C@H]1C=C[C@@H]2/C=C(C)/C=C/[C@@H](C)[C@H]([C@H](C)[C@H](O)[C@@H](C)NC(C)=O)OC(=O)/C=C/C=C(C)\C=C\[C@]2(C)C1`, for which the GI50 is < 0.001 µM and 0.00674 µM in the assay with RXF 393 renal; < 0.001 µM and 0.0049 µM in the assay with U251 CNS; 0.0049 µM with A549 NSCLC; 0.0049 µM in the assay on SK-MEL-5 melanoma; 0.00815 µM in the assay on COLO 205 colon; 0.0049 µM with RPMI-8226 leukemia. In addition, the GI50 was 0.045 µM and 0.0229 µM with NCI-H522 lung; 0.0808 µM and 0.0458 µM with MALME-3M melanoma. For the same compound, the TGI is 28.7 µM in the assay on RXF 393 renal; more than 49 µM in the assay on U251 CNS; more than 49 µM with A549 NSCLC; 0.552 µM in the assay on SK-MEL-5 melanoma; 8.64 µM with COLO 205 colon; 33.2 µM in the assay on RPMI-8226 leukemia. Besides, the TGI was found to be 13.1 µM in the assay with NCI-H522 lung, 27.9 µM in the assay on SK-MEL-2 melanoma and 21.7 µM in the assay on MALME-3M melanoma.
In the case of `CCc1cccc(C)c1NC(=O)c1sc2nc3c(cc2c1N)CCCCC3`, the GI50 is 1.6 µM with RXF 393 renal; 3.62 µM in the assay with U251 CNS; 4.14 µM with A549 NSCLC; 2.97 µM in the assay on SK-MEL-5 melanoma; 2.98 µM in the assay on COLO 205 colon; 4.3 µM in the assay on RPMI-8226 leukemia. Moreover, the values for the GI50 with NCI-H522 lung, in the assay on SK-MEL-2 melanoma and in the assay on MALME-3M melanoma were 2.78 µM, 3.27 µM and 9.11 µM, respectively. The TGI in the assay on RXF 393 renal is 6.4 µM; in the assay on U251 CNS, 80.9 µM; with A549 NSCLC it was more than 100 µM; in the assay with SK-MEL-5 melanoma, 13.8 µM; with COLO 205 colon it was 15.2 µM; in the assay on RPMI-8226 leukemia, 25 µM. Moreover, the values for the TGI with NCI-H522 lung, in the assay with SK-MEL-2 melanoma and in the assay with MALME-3M melanoma were 41.9 µM, more than 100 µM and 84.4 µM, respectively.
For the compound `CN(C)CCCOc1ccc(-c2ccc3ncc4c(c3c2)n(C2CCOCC2)c(=O)n4C)cn1`, the GI50 is 0.838 µM in the assay with RXF 393 renal; 4.52 µM in the assay with U251 CNS; 2.36 µM with A549 NSCLC; 1.48 µM in the assay with SK-MEL-5 melanoma; 0.825 µM in the assay with COLO 205 colon; 1.1 µM with RPMI-8226 leukemia. For the same compound, the GI50 in the assay on NCI-H522 lung is 0.985 µM; with SK-MEL-2 melanoma, 1.47 µM; in the assay on MALME-3M melanoma, 0.354 µM. Also, the TGI in the assay with RXF 393 renal was 4.85 µM; with U251 CNS, 18.9 µM; in the assay on A549 NSCLC, 12.3 µM; with SK-MEL-5 melanoma it was 7.47 µM; in the assay with COLO 205 colon, 3.28 µM; in the assay on RPMI-8226 leukemia, 8.63 µM. For the same compound, the TGI with NCI-H522 lung is 12.4 µM; in the assay with SK-MEL-2 melanoma it was 6.21 µM; in the assay with MALME-3M melanoma, 3.41 µM.
On to `CC(C)CCC(=O)c1ccoc1`, for which the TGI with RXF 393 renal, with CAKI-1 renal, in the assay with U251 CNS, with A549 NSCLC, in the assay on SK-MEL-5 melanoma and with COLO 205 colon was more than 100 µM each time. Moreover, the TGI with RPMI-8226 leukemia, with SK-MEL-2 melanoma and in the assay with MALME-3M melanoma was more than 100 µM in each case.
On to `Cc1cc(S(=O)(=O)Nc2nc3cscc3c(=O)n2Cc2ccccc2)c(S)cc1Cl`, for which the GI50 was 36.2 µM in the assay on RXF 393 renal; 45.4 µM with CAKI-1 renal; 34.9 µM with U251 CNS; 42.4 µM in the assay on A549 NSCLC; 21.4 µM in the assay on SK-MEL-5 melanoma; more than 100 µM in the assay with COLO 205 colon. Besides, the values for the GI50 in the assay on RPMI-8226 leukemia, in the assay with NCI-H522 lung and in the assay on MALME-3M melanoma were 26.7 µM, 81.6 µM and 28.7 µM, respectively. In addition, the TGI with RXF 393 renal, in the assay on CAKI-1 renal, in the assay with U251 CNS, in the assay on A549 NSCLC, with SK-MEL-5 melanoma and in the assay with COLO 205 colon was more than 100 µM throughout. Further, the TGI with RPMI-8226 leukemia, in the assay on NCI-H522 lung and with MALME-3M melanoma was more than 100 µM throughout.
In the case of `COc1ccc2c(CN3CCCCC3CO)cc3cc(OC)c(OC)cc3c2c1` (stereo not drawn), the TGI was determined as 18 µM in the assay with RXF 393 renal; 18.3 µM with U251 CNS; 14.2 µM in the assay on A549 NSCLC; 20.6 µM in the assay on SK-MEL-5 melanoma; 10.3 µM in the assay with COLO 205 colon; 33 µM in the assay with RPMI-8226 leukemia. Also, the TGI stood at 7.72 µM with NCI-H522 lung, 17.8 µM with SK-MEL-2 melanoma and 16.9 µM in the assay with MALME-3M melanoma.
With `CCCCCC(=O)C(C)C1=Nc2nnc(CCCCCCCc3nnc4n3C(=O)C(C(C)C(=O)CCCCC)=N4)n2C1=O` (stereo not drawn), the TGI in the assay with RXF 393 renal, in the assay with CAKI-1 renal, in the assay with U251 CNS, in the assay on A549 NSCLC, in the assay on SK-MEL-5 melanoma and in the assay on COLO 205 colon was more than 100 µM each time. Also, the TGI in the assay with RPMI-8226 leukemia, in the assay on NCI-H522 lung and in the assay on MALME-3M melanoma was more than 100 µM throughout.
With `CC(=O)[CH-]C(C)=O.CC(=O)[CH-]C(C)=O.[CH2-]CCC.[CH2-]CCC.[Sn+4]`, the GI50 is 0.0699 µM in the assay on RXF 393 renal; 0.151 µM in the assay on CAKI-1 renal; 0.304 µM in the assay on U251 CNS; 1.88 µM in the assay on A549 NSCLC; 0.848 µM in the assay with SK-MEL-5 melanoma; 0.304 µM with COLO 205 colon. In addition, the GI50 in the assay on NCI-H522 lung is 0.0586 µM; in the assay with SK-MEL-2 melanoma, 0.309 µM; in the assay on MALME-3M melanoma it was 0.2 µM. Further, the TGI in the assay with RXF 393 renal is 0.292 µM; in the assay on CAKI-1 renal it was 0.874 µM; in the assay with U251 CNS it was 1.06 µM; in the assay with A549 NSCLC, 4.15 µM; in the assay with SK-MEL-5 melanoma it was 2.15 µM; in the assay on COLO 205 colon, 1.05 µM. Also, the values for the TGI with NCI-H522 lung, in the assay with SK-MEL-2 melanoma and with MALME-3M melanoma were 0.122 µM, 1.22 µM and 1.07 µM, respectively.
